Where two headings read alike, the source gives them in different places.
How the values were obtained:
5HT2A [1] = assay type: cell-based; settings: result in words
5HT2A [2] = biological target: T1, 5HT2A (Homo sapiens, UniProt P28223); test: Serotonin 5-HT2A in vitro cellular IPOne agonism assay; assay type: cell-based; design: host or cells: CHO-K1
Procedure: Serotonin 5-HT2A In Vitro Cellular IPOne Agonism Assay. The 5-HT2A IPOne HTRF assay was performed at Epics Therapeutics S.A. (Belgium, FAST-0505I) using conventional methods. Briefly, CHO-K1 cells expressing human recombinant 5-HT2A receptor grown to mid-log phase in culture media without antibiotics were detached with PBS-EDTA, centrifuged, and resuspended in medium without antibiotics buffer. 20,000 cells are distributed in a 96 well plate and incubated overnight at 37° C. with 5% CO2.
For agonist testing, the medium is removed and 20 μl of assay buffer plus 20 μl of test compound or reference agonist are added in each well. The plate is incubated for 60 min. at 37° C. with 5% CO2.
After addition of the lysis buffer containing IP1-d2 and anti-IP1 cryptate detection reagents, plates are incubated 1-hour at room temperature, and fluorescence ratios are measured according to the manufacturer specification, with the HTRF kit.
(§1) The compounds provided herein were tested in the Serotonin 5-HT2A and 5-HT2C in vitro radioligand binding and cellular IPOne agonism assays. The binding and agonism functional potencies of several compound provided herein compounds (as indicated by their IC50s or EC50s) are shown in Table 11.

Rat cortical neurons [3] = test: Neurite Outgrowth Assay (Procedure A); assay type: cell-based; settings: 1 hour treatment at DIV 4, analyzed DIV 7
From the text: Neurite outgrowth assay. Changes in the pattern of neurite outgrowth have been implicated in neurodegenerative disorders as well as traumatic injuries. The discovery of new compounds that can positively affect neuritogenesis are important for developing new therapeutics for neurological diseases. Measurement of neurite outgrowth of rat cortical neurons using an automated image-based assay is used to determine the neuroplastic effects of the compounds provided herein. In some embodiments, a compound provided herein increases the pattern of neurite outgrowth. In some embodiments, a compound provided herein increases neurite average length compared to a control. In some embodiments, a compound provided herein increases neurite branch points compared to a control. In some embodiments, a compound provided herein increases neurite average length and neurite branch points compared to a control.
In some embodiments, the plastogenic potential of compounds provided herein is assessed by measuring the changes in neurite development. In some embodiments, the plastogenic potential (as measured by Neurite Outgrowth Procedure A) of the compounds is shown in Table 10.
Neurite Outgrowth Assay (Procedure A). Rat cortical neurons (20,000 cells/well) were freshly isolated from embryonic day 18 rats and cultured in Neurobasal Medium (+B27). The cultured cells were plated in 96 well-plates (avoiding external wells). At DIV 4, the neurons were treated with compound or control (10 μM) for 1 hour followed by complete washout of the compound. At DIV 7, the neurons were analyzed. The experiments were performed in triplicate. Neurite outgrowth was measured analyzing the following parameters: Number of Cell Bodies, total neurite length (pixels), Root Count, Segments, Extremities Count and node points. Changes in the pattern of neurite outgrowth of the neurons were analyzed by immunocytochemistry against […]. Pictures were acquired by the CellInsight CX7 from Thermo Fisher and analyzed using its software. Results generated in the equipment were maximum neurite length, extremity count, root count, dendrite branch points, and total neurite length. The results were compared the percent of DMSO control, representing the percentage of outgrowth compare to vehicle control in neuronal outgrowth.

5HT2A [4] = biological target: T1, 5HT2A; test: cell-based
Procedure: Cell lines were expanded from freezer stocks according to standard procedures. Cells were seeded in a total volume of 20 μL into black-walled, clear-bottom, Poly-D-lysine coated 384-well microplates and incubated at 37° C. for the appropriate time prior to testing. Assays were performed in 1× Dye Loading Buffer consisting of 1× Dye, 1× Additive A and 2.5 mM Probenecid in HBSS/20 mM Hepes. Probenicid was prepared fresh. Cells were loaded with dye prior to testing. Media was aspirated from cells and replaced with 20 μL Dye Loading Buffer. Cells are incubated for 30-60 minutes at 37° C.
For agonist determination, cells were incubated with sample to induce response. After dye loading, cells were removed from the incubator and 10 μL HBSS/20 mM Hepes was added. […] Cells were incubated for 30 minutes at room temperature in the dark to equilibrate plate temperature. Intermediate dilution of sample stocks was performed to generate 4× sample in assay buffer. Compound agonist activity was measured on a FLIPR Tetra (MDS). Calcium mobilization is monitored for 2 minutes and 10 μL 4× sample in HBSS/20 mM Hepes was added to the cells 5 seconds into the assay.
Compound activity was analyzed using CBIS data analysis suite (ChemInnovation, CA). For agonist mode assays, percentage activity was calculated using the following formula:
% Activity=100%×(mean RFU of test sample−mean RFU of vehicle control)/(mean MAX RFU control ligand −mean RFU of vehicle control).

5HT2A [5] = biological target: T1, 5HT2A; test: Serotonin 5-HT2A in vitro radioligand binding competition assay ([3H]-DOI); design: purchased Epics Therapeutics S.A. (Belgium) FAST-0505B
Procedure: Serotonin 5-HT2A In Vitro Radioligand Binding Competition Assay. The 5-HT2A radioligand binding competition assay was performed at Epics Therapeutics S.A. (Belgium, FAST-0505B) using conventional methods. Briefly, competition binding is performed in duplicate in the wells of a 96 well plate (Master Block, Greiner, 786201) containing binding buffer (optimized for each receptor), membrane extracts (amount of protein/well optimized for each receptor), radiotracer [^3H]-DOI (final concentration optimized for each receptor) and test compound. Nonspecific binding is determined by co-incubation with 200-fold excess of cold competitor. The samples are incubated in a final volume of 0.1 ml at a temperature and for a duration optimized for each receptor and then filtered over filter plates. Filters are washed six times with 0.5 ml of ice-cold washing buffer (optimized for each receptor) and 50 μl of Microscint 20 (Packard) are added in each well. The plates are incubated 15 min on an orbital shaker and then counted with a TopCount™ for 1 min/well.
as §1

Rat cortical neurons [6] = test: Neurite Outgrowth in Primary Neuronal Cultures Assay (Procedure B); assay type: cell-based; design: key: A: Statistically significant mean increase as a percent of DMSO control at 10 μM or less; B: No statistically significant mean increase as a percent of DMSO control at 10 μM or less; settings: 72 h, percent of DMSO control at 10 μM or less
From the text: Neurite Outgrowth in Primary Neuronal Cultures Assay (Procedure B). Changes in the pattern of neurite outgrowth have been implicated in psychiatric and neurodegenerative disorders as well as traumatic injuries. The discovery of new compounds that can positively affect neuritogenesis are important for developing new therapeutics for neurological diseases. Measurement of neurite outgrowth of rat cortical neurons using an automated image-based assay was used to determine the neuroplastic effects of the compounds of the present invention. The neurite outgrowth assay was performed at Neurofit SAS (France) as described below.
Pregnant Wistar rats (Janvier; France) were used for the study. They were delivered 6 days before their use. Upon arrival at Neurofit animal facility, they were housed one per cage and maintained in a room with controlled temperature (21-22° C.) and a reversed light-dark cycle (12 h/12 h; lights on: 17:30-05:30; lights off: 05:30-17:30) with food and water available ad libitum.
Female Wistar rats of 17 days gestation were killed by cervical dislocation and the fetuses were removed from the uterus. Their brains were placed in ice-cold medium of Leibovitz (L15, Gibco, Fisher bioblock, France). Cortices were dissected and meninges were carefully removed. The cortical neurons were dissociated by trypsinization for 30 min at 37° C. (trypsin-EDTA, Gibco) in presence of 0.1 mg/ml DNAse I (Roche, France). The reaction was stopped by addition of Dulbecco's Modified Eagle Medium (DMEM; Gibco) with 10% of fetal bovine serum (FBS; Gibco). The suspension was triturated with a 10-ml pipette and using a needle syringe 21G and centrifuged at 350×g for 10 min at room temperature. The pellet of dissociated cells was resuspended in a medium consisting of Neurobasal (Gibco) supplemented with 2% B27 supplement (Gibco), 0.5 mM L-Glutamine (Gibco), an antibiotic-antimicotic mixture. Viable cells were counted in a Neubauer cytometer using the trypan blue exclusion test (Sigma). Cells were seeded at a density of 10000 cells per well in 96-well plate (Costar) precoated with poly-L-lysine. Test compound at different concentrations were added to the cultures. Donepezil (positive control) was tested at 250 nM.
After 72 h (3 days) of plating, cultures were fixed with paraformaldehyde in PBS (4%, Sigma) for 30 min at 4° C. Then, cells were successively permeabilized with 0.1% Triton X100 for 30 min, saturated with PBS containing 3% of BSA and were incubated 1 h with anti-beta III tubulin antibody (Sigma) at 1/10 000 in PBS containing 0.5% of BSA. Cells were washed three times with PBS containing 0.5% of BSA, and they were incubated 1 h with goat anti-mouse antibody coupled with AF488 (Invitrogen A11001) diluted at 1/1000 in PBS containing 0.5% of BSA. Finally, nuclei were staining with DAPI 1 mg/ml at 1/1000 in PBS containing 0.5% of BSA. After rinsing with PBS, the plate was filmed and neurite networks were examined and analyzed using High-Content Screening (CellInsight, Thermo Scientific). The average number of neurites per neuron and the average total length of neurites per neuron were the main parameters analyzed. Analysis of data was performed using analysis of variance (ANOVA). The Fisher's Protected Least Significant Difference test was used for multiple comparisons. A p value<0.05 was considered significant. The software used is StatView 5.0 from SAS Institut.
In some embodiments, a compound of the present invention increases the pattern of neurite outgrowth. In some embodiments, a compound of the present invention increases neurite average length compared to a control. In some embodiments, a compound of the present invention increases neurite branch points compared to a control.

[7] = CHO-K1 cells, IPOne HTRF, read-out: 5-HT2A IPOne Agonism Activity
[8] = [3H]-DOI competition, membrane extracts, read-out: 5-HT2A Radioligand Binding Activity

T1 sequence (P28223 whole entry): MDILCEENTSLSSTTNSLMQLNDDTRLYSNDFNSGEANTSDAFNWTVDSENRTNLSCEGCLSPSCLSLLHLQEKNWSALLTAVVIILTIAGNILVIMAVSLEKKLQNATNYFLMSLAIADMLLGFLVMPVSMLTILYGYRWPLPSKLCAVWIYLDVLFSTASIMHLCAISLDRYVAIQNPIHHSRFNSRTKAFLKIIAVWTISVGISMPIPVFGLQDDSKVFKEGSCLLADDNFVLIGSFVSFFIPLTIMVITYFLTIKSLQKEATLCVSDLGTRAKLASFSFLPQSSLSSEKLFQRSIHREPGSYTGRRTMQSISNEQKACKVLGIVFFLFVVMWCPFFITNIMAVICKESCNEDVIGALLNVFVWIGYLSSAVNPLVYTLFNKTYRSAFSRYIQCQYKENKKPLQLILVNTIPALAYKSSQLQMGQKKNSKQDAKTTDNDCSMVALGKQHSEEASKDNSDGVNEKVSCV

Structure (SMILES) | activation of 5HT2A sensor assay in agonist mode (5HT2A [1]) | EC50 (5HT2A [2]; [7]) | IC50 (5HT2A [5]; [8]) | Increase in Neurite Length (Rat cortical neurons [6]) | Increase in Neurite Number (Rat cortical neurons [6]) | further results
CCN(CC)C(=O)[C@@H]1C=C2c3cccc4[nH]c(Br)c(c34)C[C@H]2N(C)C1 [BOL148] | do not activate the 5HT2A sensor assay in agonist mode |  |  |  |  | 
CN(C)CCc1c[nH]c2ccccc12 [DMT, N,N-dimethyltryptamine] | activate the 5HT2A sensor assay in agonist mode |  |  |  |  | 
COc1cc(CC(C)N)c(OC)cc1I (stereo not drawn) [DOI] | activate the 5HT2A sensor assay in agonist mode |  |  |  |  | 
COc1ccc2c(ccn2CCN(C)C)n1 [Example 3, 2-(5-methoxy-1H-pyrrolo[3,2-b]pyridin-1-yl)-N,N-dimethylethan-1-amine] |  | > 10 µM | 0.101 to 1 µM | A | B | Neurite Average Length @ 10 μM (Rat cortical neurons [3]): B (100%-200% vehicle); Neurite Branch Points: @ 10 μM (Rat cortical neurons [3]): A (>200% vehicle); EC50 (5HT2A [4]): > 110 µM
COc1cc2ccn(CCN(C)C)c2cn1 [Example 4, 2-(5-methoxy-1H-pyrrolo[2,3-c]pyridin-1-yl)-N,N-dimethylethan-1-amine] |  | > 10 µM | 1 to 10 µM | A | A | Neurite Average Length @ 10 μM (Rat cortical neurons [3]): B (100%-200% vehicle); Neurite Branch Points: @ 10 μM (Rat cortical neurons [3]): B (100%-200% vehicle); EC50 (5HT2A [4]): > 110 µM
COc1cnc2c(ccn2CCN(C)C)c1 [Example 5, 2-(5-methoxy-1H-pyrrolo[2,3-b]pyridin-1-yl)-N,N-dimethylethan-1-amine] |  | > 10 µM | 0.101 to 1 µM | B | B | Neurite Average Length @ 10 μM (Rat cortical neurons [3]): B (100%-200% vehicle); Neurite Branch Points: @ 10 μM (Rat cortical neurons [3]): C (<100% vehicle); EC50 (5HT2A [4]): > 110 µM
CCN(CC)CCc1c[nH]c2cc(F)ccc12 [Example 6-F-DET] | do not activate the 5HT2A sensor assay in agonist mode |  |  |  |  | 
COc1cnc2c(ccn2C[C@@H](C)N(C)C)c1 [Example 36, (R)-1-(5-methoxy-1H-pyrrolo[2,3-b]pyridin-1-yl)-N,N-dimethylpropan-2-amine] |  | > 10 µM | > 10 µM | B | B | 
C[C@H](Cn1ccc2cnccc21)N(C)C [Example 39, (R)—N,N-dimethyl-1-(1H-pyrrolo[3,2-c]pyridin-1-yl)propan-2-amine] |  | > 10 µM | > 10 µM | B | B | 
COc1ccc2c(ccn2C(=O)CN(C)C)c1 [Example 45, 2-(dimethylamino)-1-(5-methoxy-1H-indol-1-yl)ethan-1-one] |  | > 10 µM | > 10 µM | B | B | 
COc1ccc2c(ccn2C(=O)[C@@H](C)N(C)C)c1 [Example 47, (R)-2-(dimethylamino)-1-(5-methoxy-1H-indol-1-yl)propan-1-one] |  |  |  | B | B | EC50 (5HT2A [2]): > 10 µM; IC50 (5HT2A [5]): > 10 µM
O=C(c1ccc(F)cc1)C1CCN(CCn2c(=O)[nH]c3ccccc3c2=O)CC1 [Ketanserin] | do not activate the 5HT2A sensor assay in agonist mode |  |  |  |  | 
CNC(C)Cc1ccc2c(c1)OCO2 [L-MDMA] | do not activate the 5HT2A sensor assay in agonist mode |  |  |  |  | 
CCN(CC)C(=O)[C@@H]1C=C2c3cccc4[nH]cc(c34)C[C@H]2N(C)C1 [LSD] | activate the 5HT2A sensor assay in agonist mode |  |  |  |  | 
CN[C@H](C)Cc1ccc2c(c1)OCO2 [R-MDMA] | do not activate the 5HT2A sensor assay in agonist mode |  |  |  |  | 

— patent US20230219969A1 (priority 2020, published 2023)
